The test deals with focal adhesion kinase (FAK) (Homo sapiens, UniProt Q05397). The experiment in a line: FAK kinase inhibition assay. The format is biochemical.

Our source for the IC50 values is PMC8459745 (Bioorganic & medicinal chemistry letters, 2021).

Sequence of focal adhesion kinase (FAK) (Q05397 2-1052): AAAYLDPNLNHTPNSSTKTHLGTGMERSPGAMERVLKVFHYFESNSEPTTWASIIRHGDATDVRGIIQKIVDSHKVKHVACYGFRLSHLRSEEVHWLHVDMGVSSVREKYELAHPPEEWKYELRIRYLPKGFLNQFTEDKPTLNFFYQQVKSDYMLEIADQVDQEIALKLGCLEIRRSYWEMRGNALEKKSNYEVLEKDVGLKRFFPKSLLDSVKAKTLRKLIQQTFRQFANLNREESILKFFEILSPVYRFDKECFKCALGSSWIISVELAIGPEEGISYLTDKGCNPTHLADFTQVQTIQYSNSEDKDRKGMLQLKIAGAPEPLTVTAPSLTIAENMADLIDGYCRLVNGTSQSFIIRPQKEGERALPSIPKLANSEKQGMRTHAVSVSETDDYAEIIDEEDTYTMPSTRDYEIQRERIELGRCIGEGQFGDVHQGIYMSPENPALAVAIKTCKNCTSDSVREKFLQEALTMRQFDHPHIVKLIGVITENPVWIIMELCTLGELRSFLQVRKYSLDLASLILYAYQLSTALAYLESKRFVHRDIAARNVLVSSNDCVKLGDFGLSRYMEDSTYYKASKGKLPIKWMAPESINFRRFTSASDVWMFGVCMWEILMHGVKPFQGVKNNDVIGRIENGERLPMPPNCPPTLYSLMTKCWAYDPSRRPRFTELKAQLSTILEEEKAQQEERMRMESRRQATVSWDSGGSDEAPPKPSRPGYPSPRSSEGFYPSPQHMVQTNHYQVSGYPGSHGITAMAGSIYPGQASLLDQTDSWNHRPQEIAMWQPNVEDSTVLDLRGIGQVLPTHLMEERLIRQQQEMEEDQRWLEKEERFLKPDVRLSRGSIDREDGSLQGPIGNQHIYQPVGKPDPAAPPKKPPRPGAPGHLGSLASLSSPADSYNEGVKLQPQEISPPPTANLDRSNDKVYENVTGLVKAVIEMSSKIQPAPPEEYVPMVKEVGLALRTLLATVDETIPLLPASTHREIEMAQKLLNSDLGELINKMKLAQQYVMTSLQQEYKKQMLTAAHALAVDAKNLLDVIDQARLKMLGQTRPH

`CONC(=O)c1ccccc1Nc1cc(Nc2cc(C)nn2C(C)C)ncc1Cl` [GSK2256098]: inhibition was half-maximal at 22.1 nM (IC50). That is a double-digit nanomolar value.
